The values that follow come from patent publication US12043600B2, “Microbiocidal compounds” (SYNGENTA CROP PROTECTION AG, priority 2018, dated 2024).

Series [1] has as its system Alternaria solani. As to the kind of experiment: Alternaria solani/Tomato/Leaf Disc (Early Blight). The class given is in vivo. The note with it: foliar, tomato leaf disc, compared to untreated control. The procedure: Tomato leaf disks cv. Baby are placed on agar in multiwell plates (24-well format) and sprayed with the formulated test compound diluted in water. The leaf disks are inoculated with a spore suspension of the fungus 2 days after application. The inoculated leaf disks are incubated at 23° C./21° C. (day/night) and 80% rh (relative humidity) under a light regime of 12/12 h (light/dark) in a climate cabinet and the activity of a compound is assessed as percent disease control compared to untreated when an appropriate level of disease damage appears on untreated check disk leaf disks (5-7 days after application).

Series [2] has as its system Glomerella lagenarium (Colletotrichum lagenarium). The series can be described thus: Glomerella lagenarium (Colletotrichum lagenarium)/Liquid Culture (Anthracnose). The class given is cell-based. The note with it: Colletotrichum orbiculare, liquid culture, compared to untreated control.
For series [3], the system named is Blumeria graminis f. sp. tritici (Erysiphe graminis f. sp. tritici). As to the kind of experiment: Blumeria graminis f. sp. tritici/Wheat/Leaf Disc Preventative (Powdery Mildew on Wheat). The class given is in vivo. The following applies: foliar, wheat leaf disc preventative, compared to untreated control. The procedure, abridged: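 Preventative leaf-disc test: percent disease control versus untreated leaf segments read 6-8 days post-application. Compound spray applied to wheat cv. Kanzler segments on agar one day before shaking infected plants over them; incubation at 20° C and 60% rh, 24 h darkness then 12 h light/12 h dark cycles.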

Series [4] has as its system Phaeosphaeria nodorum (Septoria nodorum). The series can be described thus: Phaeosphaeria nodorum (Septoria nodorum)/Wheat/Leaf Disc Preventative (Glume Blotch). The class given is in vivo. The note with it: Parastagonospora nodorum, foliar, wheat leaf disc preventative, compared to untreated control. The procedure, abridged:
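Preventative test: compound spray first, then spore inoculation after 2 days on cv. Kanzler wheat leaf segments. Incubation in a climate cabinet at 20 °C and 75% rh under a 12 h light/12 h dark cycle. Activity rated as % control relative to untreated discs at 5–7 days post-application.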

The test system of series [5] is Monographella nivalis (Microdochium nivale). As to the kind of experiment: Monographella nivalis (Microdochium nivale)/Liquid Culture (Foot Rot Cereals). Format: cell-based. The note with it: liquid culture, compared to untreated control. The procedure, abridged:
(§1)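 Liquid-culture format using potato dextrose broth inoculated directly with cryopreserved conidia, dosed with compound from a DMSO solution.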

The subject of series [6] is Mycosphaerella arachidis (Cercospora arachidicola). As to the kind of experiment: Mycosphaerella arachidis (Cercospora arachidicola)/Liquid Culture (Early Leaf Spot). Format: cell-based. The note with it: liquid culture, compared to untreated control. The essentials: as §1
Series [7] concerns Phytophthora infestans. The series can be described thus: whole plant or invertebrate. The class given is in vivo. The following applies: in Solanum lycopersicum, foliar, read-out: control of Phytophthora infestans.
In series [8] the test system is Plasmopara viticola. As to the kind of experiment: whole plant or invertebrate. The class given is in vivo. The following applies: foliar, read-out: control of Plasmopara viticola.
For series [9], the system named is Puccinia recondita f. sp. tritici. As to the kind of experiment: Puccinia recondita f. sp. tritici/Wheat/Leaf Disc Curative (Brown Rust). Format: in vivo. The note with it: foliar, wheat leaf disc curative, compared to untreated control. The procedure, abridged: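 Formulated compound, diluted in water, is applied to inoculated wheat cv. Kanzler leaf segments on agar one day post-inoculation (pre-incubation dark, 19° C, 75% rh). After 6-8 days at 19° C, 75% rh and 12 h/12 h light, activity is rated as percent disease control relative to untreated segments.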

Series [10] shares this test system. As to the kind of experiment: Puccinia recondita f. sp. tritici/Wheat/Leaf Disc Preventative (Brown Rust). The class given is in vivo. The following applies: foliar, 200 ppm, wheat leaf disc preventative, compared to untreated control, read-out: control of Puccinia recondita f. sp. tritici.
The test system of series [11] is Magnaporthe grisea (Pyricularia oryzae). As to the kind of experiment: whole plant or invertebrate. Format: in vivo. The following applies: foliar, read-out: control of Magnaporthe grisea.
The subject of series [12] is Pyrenophora teres. As to the kind of experiment: Pyrenophora teres/Barley/Leaf Disc Preventative (Net Blotch). Format: in vivo. The note with it: foliar, 200 ppm, barley leaf disc preventative, compared to untreated control, read-out: control of Pyrenophora teres. The procedure, abridged: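 Preventative leaf-disc test: inoculation with fungal spores took place 2 days after spraying segments of barley cv. Hasso, placed on agar, with water-diluted formulated compound. Read-out is % disease control per compound.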

Series [13] has as its system Mycosphaerella graminicola (Septoria tritici). The series can be described thus: Mycosphaerella graminicola (Septoria tritici)/Liquid Culture (Septoria Blotch). The following applies: Zymoseptoria tritici; 20 ppm; liquid culture; compared to untreated control. The class given is cell-based. The essentials: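 Results given as % disease control: test compound in DMSO was placed in wells first, then potato dextrose broth carrying cryostored fungal conidia was added.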

Series [14] concerns Phakopsora pachyrhizi. The series can be described thus: Phakopsora pachyrhizi/Soybean/Preventative (Soybean Rust). The note with it: 288 h, Phakopsora pachyrhizi (Soybean rust). Format: in vivo.
Series [15] has as its system Botryotinia fuckeliana (Botrytis cinerea). As to the kind of experiment: Botryotinia fuckeliana (Botrytis cinerea)/Liquid Culture (Gray Mould). The class given is cell-based. The following applies: liquid culture, compared to untreated control. The procedure:
Conidia of the fungus from cryogenic storage are directly mixed into nutrient broth (Vogels broth). After placing a (DMSO) solution of test compound into a microtiter plate (96-well format), the nutrient broth containing the fungal spores is added.

Turning to `CO/C=C(\Oc1cc(-n2ncc(Br)n2)ccc1C)C(=O)OC` [Compound F-1, methyl (Z)-2-[5-(4-bromotriazol-2-yl)-2-methyl-phenoxy]-3-methoxy-prop-2-enoate], the pest or weed control at 200 ppm in [1], in series [3], in series [4], in [7], in series [8] and in series [9] was at least 80% each time. Moreover, the pest or weed control at 200 ppm in [10], in series [11] and in series [12] was at least 80% each time. For the same compound, the inhibition of growth at 20 ppm in series [2], in series [5], in [6] and in series [13] was at least 80% in each case.

With `CCCc1cnn(-c2ccc(C)c(O/C(=C\OC)C(=O)OC)c2)n1` [Compound F-2, methyl (Z)-3-methoxy-2-[2-methyl-5-(4-propyltriazol-2-yl)phenoxy]prop-2-enoate], the pest or weed control at 200 ppm in [1] was at least 80%; in series [4] it was at least 80%; in series [14] (200 ppm, read-out: control (%)), 100%; in [7], at least 80%; in [8], at least 80%; in series [11], at least 80%. In series [12], the pest or weed control at 200 ppm is at least 80%. Besides, the inhibition of growth at 20 ppm in series [2], in series [5], in series [6] and in [13] was at least 80% in each case. For the same compound, the pest or weed control at 0.6 ppm in [14] (0.6 ppm) is 0%. Moreover, in series [14] (2 ppm), the pest or weed control at 2 ppm worked out at 20%. Further, the pest or weed control at 6 ppm in series [14] (6 ppm) was determined as 50%. Besides, the pest or weed control at 20 ppm in series [14] (20 ppm) was determined as 90%. The same compound came in with a pest or weed control at 60 ppm in [14] (60 ppm) of 100%.

For `CO/C=C(\Oc1cc(-n2ccc(Br)n2)ccc1C)C(=O)OC` [Compound E-83, methyl (Z)-2-[5-(3-bromopyrazol-1-yl)-2-methyl-phenoxy]-3-methoxy-prop-2-enoate], the melting point is 106 to 110 °C. This compound yielded a pest or weed control at 200 ppm in series [1] of at least 80%. The inhibition of growth at 20 ppm in series [2] was at least 80%. This compound also gave a pest or weed control at 200 ppm in series [3] of at least 80%. The pest or weed control at 200 ppm in series [4] was at least 80%. Further, the inhibition of growth at 20 ppm in [5] is at least 80%. Also, in series [6], the inhibition of growth at 20 ppm is at least 80%. Also, the pest or weed control at 200 ppm in series [7] was at least 80%. Further, the pest or weed control at 200 ppm in [8] is at least 80%. For the same compound, the pest or weed control at 200 ppm in series [10] was at least 80%. The pest or weed control at 200 ppm in series [11] is at least 80%. For the same compound, the pest or weed control at 200 ppm in [12] was at least 80%. This compound also came in with an inhibition of growth at 20 ppm in series [13] of at least 80%.

Regarding `CO/C=C(\Oc1cc(-n2ncc(C(C)C)n2)ccc1C)C(=O)OC` [Compound F-4, methyl (Z)-2-[5-(4-isopropyltriazol-2-yl)-2-methyl-phenoxy]-3-methoxy-prop-2-enoate], the pest or weed control at 200 ppm in series [1], in series [3], in series [4], in [7], in [8] and in series [11] was at least 80% throughout. Also, the pest or weed control at 200 ppm in series [12] was at least 80%. For the same compound, the inhibition of growth at 20 ppm in [2], in series [5], in [6] and in series [13] was at least 80% in each case.

Consider `CO/C=C(\Oc1cc(-n2ccc(C#CC3CC3)n2)ccc1C)C(=O)OC` [Compound E-1, methyl (Z)-2-[5-[3-(2-cyclopropylethynyl)pyra-zol-1-yl]-2-methyl-phenoxy]-3-methoxy-prop-2-enoate], for which the melting point is 158 to 162 °C. In addition, the pest or weed control at 200 ppm in series [1] was at least 80%. The compound further had a pest or weed control at 200 ppm in series [4] of at least 80%. Moreover, in [5], the inhibition of growth at 20 ppm was at least 80%. For the same compound, the inhibition of growth at 20 ppm in [6] was at least 80%. For the same compound, in [7], the pest or weed control at 200 ppm was at least 80%. Moreover, in series [8], the pest or weed control at 200 ppm is at least 80%. Further, the pest or weed control at 200 ppm in series [10] is at least 80%. In series [11], the pest or weed control at 200 ppm is at least 80%. In addition, the pest or weed control at 200 ppm in series [12] was at least 80%. The compound also returned an inhibition of growth at 20 ppm in series [13] of at least 80%.

For the compound `CO/C=C(\Oc1cc(-n2ncc(C3CCCC3)n2)ccc1C)C(=O)OC` [Compound F-5, methyl (Z)-2-[5-(4-cyclopentyltriazol-2-yl)-2-methyl-phenoxy]-3-methoxy-prop-2-enoate], the pest or weed control at 200 ppm in series [1], in series [3], in series [4], in series [7], in [8] and in [9] was at least 80% in each case. Besides, the pest or weed control at 200 ppm in series [10], in [11] and in series [12] was at least 80% each time. The inhibition of growth at 20 ppm in series [2], in series [5], in series [6] and in [13] was at least 80% each time.

Take `CO/C=C(\Oc1cc(-n2ccc(C(C)C)n2)c(Cl)cc1C)C(=O)OC` [Compound E-29, methyl (Z)-2-[4-chloro-5-(3-isopropylpyrazol-1-yl)-2-methyl-phenoxy]-3-methoxy-prop-2-enoate]: the melting point lay within 96 to 98 °C. For the same compound, the pest or weed control at 200 ppm in series [1] was at least 80%. Further, the inhibition of growth at 20 ppm in series [15] is at least 80%. Also, in series [2], the inhibition of growth at 20 ppm was at least 80%. In [3], this compound registered a pest or weed control at 200 ppm of at least 80%. This compound also yielded a pest or weed control at 200 ppm in series [4] of at least 80%. For the same compound, the inhibition of growth at 20 ppm in series [5] is at least 80%. In addition, the inhibition of growth at 20 ppm in [6] was at least 80%. Moreover, the pest or weed control at 200 ppm in series [7] is at least 80%. Moreover, the pest or weed control at 200 ppm in series [8] was at least 80%. In addition, in series [9], the pest or weed control at 200 ppm is at least 80%. In addition, the pest or weed control at 200 ppm in series [10] was at least 80%. Besides, the pest or weed control at 200 ppm in [11] is at least 80%. In series [13], this compound had an inhibition of growth at 20 ppm of at least 80%.

On to `CO/C=C(\Oc1cc(-n2nc(Br)c(Br)n2)ccc1C)C(=O)OC` [Compound F-10, methyl (Z)-2-[5-(4,5-dibromotriazol-2-yl)-2-methyl-phenoxy]-3-methoxy-prop-2-enoate], for which the pest or weed control at 200 ppm in series [1], in series [3], in series [4], in series [7], in [8] and in [10] was at least 80% throughout. The pest or weed control at 200 ppm in series [11] and in series [12] was at least 80% each time. For the same compound, the inhibition of growth at 20 ppm in series [2], in series [6] and in series [13] was at least 80% in each case.

In general, inhibition of growth refers to the share of the control response that was lost under treatment. Read a high inhibition of growth as strong suppression. As a reminder, the melting point is the temperature, or range, at which the solid turns liquid.
